# Patent US11560545B2, “Polymeric carriers and methods” (The Brigham and Women's Hospital, Inc., priority 2017, dated 2023)
# Columns and labels:
# 3T3 fibroblasts = test: in vitro cytotoxicity by MTT assay; format: cell-based
# [1] = test system: human mesenchymal stem cells (hMSC); test: DTT / digestion solution cytotoxicity to hMSC; format: cell-based; conditions: short exposure (<30 minutes), high concentration of DTT (50 mM)
# Description: Also, the DTT cytotoxicity to human mesenchymal stem cells (hMSC) was studied, as depicted at FIG. 3C. […], hMSC presented low viability—80% to 85%—at the high concentration of DTT (50 mM).
# hMSCs = test: cell viability after full digestion with digestion agents; conditions: 0.015 M sodium citrate solutions
# Description: The cell viability was calculated after full digestion due to the concern of potential cytotoxicity from the digestion agents.
SMILES,cytotoxicity (MTT) (3T3 fibroblasts; 50 mM DTT solution),"cytotoxicity (MTT) (3T3 fibroblasts; low concentration 1 mM, compared to DPBS)","cytotoxicity (MTT) (3T3 fibroblasts; working concentration 10 mM, compared to DPBS)",hMSC tolerance [1],cytotoxicity to hMSCs (hMSCs)
"O[C@H](CS)[C@H](O)CS (racemic) [DTT, dithiothreitol]",significant cytotoxicity,no significant cytotoxicity,no significant cytotoxicity,tolerant,
O=C([O-])CC(O)(CC(=O)[O-])C(=O)[O-].[Na+].[Na+].[Na+] [sodium citrate],,,,,certain level of cytotoxicity
